In patent publication US20220362120A1, “STABILIZATION OF RESORCINOL COMPOUNDS IN COSMETIC COMPOSITIONS” (Conopco, Inc., d/b/a UNILEVER, priority 2019, published 2022):

Legend:
[1] = Quantitation of 4-alkyl resorcinols by HPLC (peak area @ 281 nm vs freshly prepared control); format: physicochemical; conditions: for 4-Alkylresorcinol (% of control): after 2 weeks at R.T. (~20-22° C.), HPLC, mean of duplicates, DI water:butylene glycol (4:1)
Protocol: The amount of 4-alkylresorcinol present in each of the samples used for the color measurements was quantitated after 2 weeks @ R.T. (˜20-22° C.) by high performance liquid chromatography (HPLC). An sample aliquot (100 uL) from each of the color measurement solutions was diluted with DI water:acetonitrile (1:1, 900 uL) to generate test samples (1 ml). An aliquot (10 uL) from each test sample was injected into a Waters 2695 Separations Module, chromatographed and separated on a Restek Pinnacle DB C18 (5 um, 4.6×150 mm) column operated at 30° C. and the 4-alkylresorcinols monitored using a Waters 2996 Photodiode Array Detector set @ 281 nm. The mobile phase consisted of water (A) and acetonitrile (B) and optimum separation was achieved using a gradient from 95:5 (A:B) to 5:95 (A:B) in 20 min, followed by isocratic elution at 5:95 (A:B) for 3 min at a flow rate of 1 ml/min. The chromatographic data was processed using Empower 2 software (Waters Corporation, Milford, Mass.). Standard control samples of 4-alkylresorcinols at 1×, 5× higher and 5× lower concentrations were prepared fresh and immediately analysed; standard curves were generated within the test sample range and linearity was confirmed.
All samples were analyzed in duplicate and the mean value reported. The amount of 4-alkylresorcinol present for each test sample after 2 weeks was determined by measuring the chromatographic peak area under the curve @ 281 nm for the 4-alkylresorcinol and expressed as the percent ratio over the corresponding chromatographic peak area under the curve @ 281 nm for the freshly prepared control sample.

[2] = Color evaluation of 4-alkylresorcinol solutions (visual and L*a*b*, Labscan XE) after 2 weeks at R.T.; format: physicochemical; conditions: for Appearance (visual appearance of solution) / L* / b* / a*: after 2 weeks at R.T. (~20-22° C.), DI water:butylene glycol (4:1); for L*: black (L*=0) to white (L*=100); for b*: blue (b*<0) to yellow (b*>0); for a*: green (a*<0) to red (a*>0)
Protocol: Samples for color evaluation were prepared by dissolving 4-hexylresorcinol (200 mg) or 4-ethylresorcinol (200 mg) in DI water:butylene glycol (4:1; 20 ml) to generate a clear colorless homogeneous solution. A portion of each solution (5 ml) was added to a 20 ml scintilation vial containing either niacinamide (B3) (50 mg), AceMet (acetyl methionine) (50 mg) or B3 (50 mg)+AceMet (50 mg) and monitored @ R.T. (˜20-22° C.). After 2 weeks, the color of each solution was assessed visually and L*a*b* measurements determined experimentally using a Labscan XE instrument (Hunter Associates Labs Inc., Reston, Va.) and processed with Universal Software (version 4.10). The L* parameter measures darkness and lightness and ranges from black (L*=0) to white (L*=100). The a* parameter measures color content and intensity ranging from green (a*<0) to neutral grey (a*=0) to red (a*>0). The b* parameter also measures color content and intensity ranging from blue (b*<0) to neutral grey (b*=0) to yellow (b*>0).

4-Alkylresorcinol (% of control) [1]	Appearance (visual appearance of solution) [2]	L* [2]	b* [2]	a* [2]	decrease of the level of HR ([1]; HR solution after 2 weeks)	decomposition of HR ([1]; HR solution with addition of B3, after 2 weeks)	decomposition upon HPLC analysis ([1]; freshly prepared solution)	color of solution ([2]; freshly prepared solution)	Structure (SMILES)
96 % of control	light orange	82.74	39.57	6.38	–	–	–	–	CCc1ccc(O)cc1O [1% ER, 4-ethylresorcinol]
60 % of control	reddish-pink	84.77	13.4	11.4	40%	55%	no decomposition	colorless	CCCCCCc1ccc(O)cc1O [1% HR, 4-hexylresorcinol]
